Assay [1] deals with methionine N^α -acetyltransferase from S. cerevisiae. The format is biochemical, Saccharomyces cerevisiae. Particulars: for effect of ion or salt on M-N^α AT activity: concentration not given; for Enzyme Activity (%): 5 min room temperature, 50 mM HEPES pH 7.4, 1 mM DTT, substrate PAI (N=3). The protocol:
(§1) N^α -acetyltransferase activity was determined as previously described [Lee et al., J. Biol. Chem. 263:14948-14955 (1988)]. Aliquots of the lysate or chromatographic fractions were added to 1.5 ml Eppendorf tubes containing a reaction mixture of 50 mM HEPES, pH 7.4, 150 mM KCl, 1 mM DTT, 25 μM [^3 H] acetyl coenzyme A (0.5 μCi) and 50 μM synthetic peptide with an adjusted final volume of 100 μl. The assay mixture was incubated at 30° C. for 30 min. The reaction was stopped by adding 17 μl of 0.5M acetic acid and chilled in an ice bath. The reaction samples were filtered through SP membrane discs (Cuno) (previously pre-swollen in 0.5M acetic acid), and then washed three times with 1 ml of 0.5M acetic acid on a Millipore 1225 sampling manifold. The partially dried membranes were placed in scintillation cocktail and counted with a Beckman LS 3801 scintillation counter.
Yeast methionine acetyltransferase was incubated in the presence of various divalent cations at a room temperature for 5 min in 50 mM HEPES, pH 7.4 containing 1 mM DTT. The enzyme activity was determined under standard assay conditions using PAI (N=3), as described above.

In a further assay the target is T1, yeast N^α AT (Saccharomyces cerevisiae, UniProt P07347+P12945).
T1 sequence (P12945 2-854 limits assumed): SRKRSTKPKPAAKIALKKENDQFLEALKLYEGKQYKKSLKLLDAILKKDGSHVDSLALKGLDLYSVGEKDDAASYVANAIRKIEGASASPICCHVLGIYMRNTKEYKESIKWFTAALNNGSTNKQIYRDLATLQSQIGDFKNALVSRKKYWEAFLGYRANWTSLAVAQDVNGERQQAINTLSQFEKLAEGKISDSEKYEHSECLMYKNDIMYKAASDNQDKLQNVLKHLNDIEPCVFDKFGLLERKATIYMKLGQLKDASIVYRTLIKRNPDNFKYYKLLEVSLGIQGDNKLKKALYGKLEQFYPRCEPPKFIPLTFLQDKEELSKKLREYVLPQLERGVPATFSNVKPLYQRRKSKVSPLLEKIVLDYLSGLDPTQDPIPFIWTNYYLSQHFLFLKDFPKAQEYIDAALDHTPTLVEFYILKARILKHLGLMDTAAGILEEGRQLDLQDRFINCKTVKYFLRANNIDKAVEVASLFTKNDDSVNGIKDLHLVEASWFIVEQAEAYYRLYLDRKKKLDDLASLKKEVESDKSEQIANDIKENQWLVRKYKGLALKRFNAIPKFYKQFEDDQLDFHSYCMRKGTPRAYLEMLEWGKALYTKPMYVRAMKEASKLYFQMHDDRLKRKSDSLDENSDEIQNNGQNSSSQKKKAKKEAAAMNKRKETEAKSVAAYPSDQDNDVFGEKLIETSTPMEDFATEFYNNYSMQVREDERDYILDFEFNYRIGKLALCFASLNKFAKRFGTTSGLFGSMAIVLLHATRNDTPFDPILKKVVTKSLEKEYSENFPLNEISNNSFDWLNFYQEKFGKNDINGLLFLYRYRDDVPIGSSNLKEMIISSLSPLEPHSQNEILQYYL
T1 sequence (P07347 1-238): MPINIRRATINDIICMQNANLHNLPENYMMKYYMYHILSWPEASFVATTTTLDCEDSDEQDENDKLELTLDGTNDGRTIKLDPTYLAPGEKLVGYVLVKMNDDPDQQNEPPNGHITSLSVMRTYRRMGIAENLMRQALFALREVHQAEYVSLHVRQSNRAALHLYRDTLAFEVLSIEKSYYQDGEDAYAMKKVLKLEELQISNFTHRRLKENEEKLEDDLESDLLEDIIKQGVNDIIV
As to the kind of experiment: Effect of ions and reagents on yeast N^α AT (comparison in the discussion). It is filed as biochemical.

Assay [2] has as its system methionine N^α -acetyltransferase from S. cerevisiae. The assay can be described thus: Effect of protein modification reagents on enzyme activity. It is filed as biochemical, Saccharomyces cerevisiae. Particulars: for Enzyme Activity (%): 30° C. 15 min, then dialyzed, substrate PAI (N=3). The protocol: as §1, with “counter. One unit of activity was defined as the amount of enzyme able to transfer 1 pmol of [^3 H] acetyl group from [^3 H] acetyl coenzyme A to synthetic peptide per min under standard enzyme assay conditions defined above.” for “counter.”
In order to determine the possible catalytic role for different types of amino acid residues in the enzyme, various chemical modifications were carried out (Table 10). Yeast methionine acetyltransferase was incubated with each reagent at 30° C. for 15 min, dialyzed against 50 mM HEPES, pH 7.4, 150 mM, 1 mM DTT at 4° C. for 3 to 4 hr. The enzyme activity was determined under standard assay conditions using PAI (N=3), assayed as described above.

Assay [3] has as its system yeast M-N^α -acetyltransferase. As to the kind of experiment: Effect of KCl or NaCl on enzyme activity. The format is biochemical, Saccharomyces cerevisiae. As to conditions: for reduction in enzyme activity: enzyme assay performed at 0.8M, 800000 µM; for effect on enzyme activity: up to 0.5M in the assay. The protocol:
as §1, with “counter. One unit of activity was defined as the amount of enzyme able to transfer 1 pmol of [^3 H] acetyl group from [^3 H] acetyl coenzyme A to synthetic peptide per min under standard enzyme assay conditions defined above.” for “counter.”

Assay [4] deals with T2, N^α -acetyltransferase activity of crude yeast lysate, aaa1 mutant strain T3A-a (Saccharomyces cerevisiae, UniProt Q06504).
T2 construct: a crude yeast homogenate from the aaa1 mutant strain; endogenous in cells; host or cells: Saccharomyces cerevisiae strain T3A-a (aaa1), crude lysate
T2 sequence (Q06504 1-195): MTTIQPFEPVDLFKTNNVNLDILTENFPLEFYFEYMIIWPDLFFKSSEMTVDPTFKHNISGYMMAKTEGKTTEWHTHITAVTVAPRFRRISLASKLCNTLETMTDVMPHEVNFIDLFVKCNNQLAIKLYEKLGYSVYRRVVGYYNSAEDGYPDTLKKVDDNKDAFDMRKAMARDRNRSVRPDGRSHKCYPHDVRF
T2 sequence (Q12387 1-796 partner): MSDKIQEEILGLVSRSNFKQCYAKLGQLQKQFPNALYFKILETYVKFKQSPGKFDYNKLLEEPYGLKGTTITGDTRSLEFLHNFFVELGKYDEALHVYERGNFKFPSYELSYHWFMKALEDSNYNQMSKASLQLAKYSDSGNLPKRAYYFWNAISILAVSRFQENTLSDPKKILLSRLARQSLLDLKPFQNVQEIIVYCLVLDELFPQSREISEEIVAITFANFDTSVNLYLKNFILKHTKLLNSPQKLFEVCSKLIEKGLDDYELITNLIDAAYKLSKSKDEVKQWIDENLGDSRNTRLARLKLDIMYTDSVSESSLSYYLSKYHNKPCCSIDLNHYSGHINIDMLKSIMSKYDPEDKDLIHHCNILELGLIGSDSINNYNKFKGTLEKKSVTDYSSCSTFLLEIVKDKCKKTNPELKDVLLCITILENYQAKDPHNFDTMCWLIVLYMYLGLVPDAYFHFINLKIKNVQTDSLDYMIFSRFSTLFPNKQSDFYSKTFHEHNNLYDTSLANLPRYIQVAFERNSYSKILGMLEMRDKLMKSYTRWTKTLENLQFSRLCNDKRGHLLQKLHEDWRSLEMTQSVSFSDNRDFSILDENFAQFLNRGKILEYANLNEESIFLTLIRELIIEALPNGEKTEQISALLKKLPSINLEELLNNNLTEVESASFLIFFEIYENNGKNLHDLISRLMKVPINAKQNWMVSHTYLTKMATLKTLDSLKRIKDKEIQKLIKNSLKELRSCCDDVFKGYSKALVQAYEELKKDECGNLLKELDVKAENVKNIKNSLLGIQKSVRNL
As to the kind of experiment: N^α -acetylation of peptide substrates by crude yeast lysate, aaa1 mutant strain. It is filed as biochemical. As to conditions: crude lysate of aaa1 mutant strain T3A-a; mean ± SD (N=3-5); normalized to human adrenocorticotropic hormone (1-24); 50 μM peptide. The protocol: as §1, with “counter. One unit of activity was defined as the amount of enzyme able to transfer 1 pmol of [^3 H] acetyl group from [^3 H] acetyl coenzyme A to synthetic peptide per min under standard enzyme assay conditions defined above.” for “counter.”
(§2) The wild-type (containing endogenous N^α -acetyltransferase activity) and the aaa1 (lacking endogenous N^α -acetyltransferase activity) strains were T3A and T3A-a, respectively (Lee, F-J. S., et al., J. Bacteriol. 171, 5795-5802 (1989)). Human adrenocorticotropic hormone (1-24), yeast alcohol dehydrogenase (1-24), and human superoxide dismutase (1-24) have either serine or alanine as amino-terminal residues, while proteinase A inhibitor 3 has a methionine residue. The synthesis of the peptide substrates, the preparation of the crude yeast homogenate, and the assay of enzyme activity were as previously described by Lee et al. (Lee, F-J. S., et al., J. Biol. Chem. 263:14948 (1988); Kamitani, K., et al., J. Biol. Chem. 264:13188 (1989)). The numbers in parentheses refer to the residue numbers, and the letters in parentheses specify the amino acid sequence. Abbreviations: A (alanine), C (cysteine), D (aspartic acid), E (glutamic acid), F (phenylalanine), G (glycine), H (histidine), I (isoleucine), K (lysine), L (leucine), M (methionine), N (asparagine), P (proline), Q (glutamine), R (arginine), S (serine), T (threonine), V (valine), W (tryptophan). Data are reported as mean activity±SD (N=3-5) and are normalized to the activity of the homogenate towards human adrenocorticotropic hormone (1-24).

For assay [5], the system named is N^α -acetyltransferase activity of crude yeast lysate, wild-type (AAA1) strain T3A. As to the kind of experiment: N^α -acetylation of peptide substrates by crude yeast lysate, wild-type strain. Particulars: crude lysate of wild-type strain T3A; mean ± SD (N=3-5); normalized to human adrenocorticotropic hormone (1-24); 50 μM peptide. The format is biochemical, Saccharomyces cerevisiae. The protocol:
as §1, with “counter. One unit of activity was defined as the amount of enzyme able to transfer 1 pmol of [^3 H] acetyl group from [^3 H] acetyl coenzyme A to synthetic peptide per min under standard enzyme assay conditions defined above.” for “counter.”
as §2

Entries after “also recorded” stand apart in the source; their conditions may differ. Where two headings read alike, the source gives them in different places.

From patent US5223421A, “Identification of methionine Nα-acetyltransferase” (The General Hospital Corporation, priority 1990, dated 1993) come the findings set out here.

In the case of `O=S(=O)([O-])[O-].[Cu+2]` [CuSO4], in assay [1] (listed as Cu^2+), the “effect of ion or salt on M-N^α AT activity” value (shortened to “effect of ion or salt”) was “pronounced and concentration-dependent inhibition; also recorded: inhibited markedly”. Further, the results for the “Enzyme Activity (%)” value in assay [1] (salt 0.1 mM) and in assay [1] (salt 1 mM) were 65% and 0%, respectively. Further, the “effect of ion on N^α AT activity” value on yeast N^α AT is “inhibited markedly”.

As for `NC(=O)CI` [IAM, iodoacetamide], the “effect of reagent on M-N^α AT activity” value is “without effect” in assay [2] (1 mM), “partial inactivation” in assay [2] (10 mM) and “inability” in assay [2] (concentration not given). Further, the “Enzyme Activity (%)” value in assay [2] (reagent 1.0 mM) stood at 100%; in assay [2] (reagent 10.0 mM) it was 86%. In addition, on yeast N^α AT, the “effect of reagent on N^α AT activity” value is “inability”.

For the molecule `[Cl-].[K+]` [KCl], in assay [3], the “reduction in enzyme activity” value came to 50% and the “effect on enzyme activity” value is on record as “did not affect the enzyme activity”.

As to `CCN1C(=O)C=CC1=O` [NEM, N-ethylmaleimide], the “effect of reagent on M-N^α AT activity” value is reported as “partial inactivation” in assay [2] (0.5 mM) and “inability” in assay [2] (concentration not given). Further, the “Enzyme Activity (%)” value in assay [2] (reagent 0.5 mM) amounted to 77%; in assay [2] (reagent 5.0 mM) it was 20%. Further, the “effect of reagent on N^α AT activity” value on yeast N^α AT is recorded as “inability”.

As for `[Cl-].[Na+]` [NaCl], in assay [3], the “reduction in enzyme activity” value was determined as 50% and the “effect on enzyme activity” value was “did not affect the enzyme activity”.

Turning to `O=S(=O)([O-])[O-].[Zn+2]` [ZnSO4], in assay [1] (listed as Zn^2+), the “effect of ion or salt” value was “pronounced and concentration-dependent inhibition; also recorded: inhibited markedly”. The “Enzyme Activity (%)” value is reported as 95% in assay [1] (salt 0.01 mM), 52% in assay [1] (salt 0.1 mM) and 0% in assay [1] (salt 1 mM). In addition, the “effect of ion on N^α AT activity” value at yeast N^α AT is on record as “inhibited markedly”.

Turning to `Cl` [chloride ion], the “effect of ion or salt” value in assay [1] was “neither M-N^α AT nor N^α AT were activated”. For the same molecule, the “effect of ion on N^α AT activity” value on yeast N^α AT is “neither M-N^α AT nor N^α AT were activated”.

With `O=C(O)c1cc[c]([Hg][Cl])cc1` [pCMB, p-chloromercuribenzoate], the “effect of reagent on M-N^α AT activity” value in assay [2] (1 mM) is “without effect”; in assay [2] (10 mM), “partial inactivation”; in assay [2] (concentration not given), “inability”. The “Enzyme Activity (%)” value came to 94% in assay [2] (reagent 1.0 mM) and 25% in assay [2] (reagent 10.0 mM). Further, the “effect of reagent on N^α AT activity” value on yeast N^α AT was “inability”.

Regarding “ATKAVCVLKGDGPVQGSINFEQKE (ATKAVCVLKGDGPVQGSINFEQKE) [Superoxide dismutase (1-24) (Human)]”, the “Activity (%) aaa1” value in assay [4] was determined as 0%. Moreover, the “Activity (%) AAA1” value in assay [5] is 80 ± 6%.
